# Experimental data as given in US20220267341A1, “SOLID FORMS OF TERT-BUTYL (S)-2((2S,3R)-1-AMINO-3-HYDROXY-1-OXOBU TAN-2-YL)-1-OXO-2, 5-DIAZASPIRO [3.4] OCTAN E-5-CARBOXYLATE AND METHODS OF PREPARING THEM” (NAUREX INC., priority 2019, published 2022).
# What was measured:
# Format in all cases: physicochemical
# [1] = Competitive slurry in mixtures of water and isopropanol; conditions: 25° C.
# Protocol: Competitive slurry in mixtures of water and isopropanol indicates the phase boundary between the crystalline Form I and crystalline Form II is between water activity of 0.66-0.78 at 25° C. At water activity above 0.78, crystalline Form II is the stable form, whereas at water activity below 0.66, crystalline Form I is the stable form
# [2] = Thermogravimetric analysis (TGA); conditions: heated from room temperature at 10° C./minute; consistent with a dihydrate
# Protocol: TGA: Approximately 5-10 mg sample was heated from room temperature to 250° C. at 10° C./minute.
# (§1) In another experiment, about 2 g of crystalline Form I of Compound A from Example 1 was weighed into a 20 mL scintillation vial and 4 mL of Milli-Q water was added into the vial. The resulting suspension was stirred with a spatula and left at room temperature for one day. The residual was then filtered with vacuum and dried in a vacuum oven at room temperature for about 20 hours. XRPD was taken after drying and Form II was confirmed since it was essentially the same as FIG. 3, top panel. […] The dried sample was then dehydrated in a TGA pan at 80° C. (ramp from room temperature to 80° C. at 10° C./min and then isothermal for 2 min).
# [3] = DVS water vapor desorption analysis; conditions: 25° C.
# Protocol: DVS: The following method was used for the water vapor desorption analysis using a DVS Advantage (Surface Measurement Systems). • Temperature: 25° C. • RH program: 95, 90, 80, 70, 60, 50, 40, 35, 30, 20, 10, 0%. • Dm/dt (%/min.): 0.0005 • Minimum equilibrium time: 120 minutes • Maximum equilibrium time: 2000 minutes
# The solid was also subjected to DVS measurement and lost about 11% water at 0% RH.
# [4] = DSC thermogram (dehydration event); conditions: 20 to 180° C. at 10° C./min, pin-hole lid
# Protocol: DSC: DSC thermograms were obtained using a TA Instruments DSC Q2000. Approximately 1-2 mg of sample was weighed into a Tzero aluminum pan and hermetically sealed with a Tzero hermetic lid. For crystalline Form II samples, the lid was punched with a pin-hole. • DSC: Sample was scanned from 20 to 180° C. at 10° C./min.
# as §1
# [5] = Dehydration in a TGA pan at 80° C., form checked by XRPD and DSC; conditions: ramp to 80° C. at 10° C./min then isothermal for 2 min
# Protocol: as §1
water activity at which the form is the stable form ([1]; dihydrate),TGA weight loss [2],water lost in DVS ([3]; 0% RH),water loss in DVS at or above 20% RH ([3]; at or above 20% RH),possible dehydration event in DSC [4],water activity at which the form is the stable form [1],SMILES,solid form after dehydration [5]
above 0.78,9.6%,about 11%,did not lose water,about 82 °C,–,"C[C@@H](O)[C@@H](C(N)=O)N1C[C@@]2(CCCN2C(=O)OC(C)(C)C)C1=O [crystalline Form II of Compound A, tert-butyl (S)-2-((2S,3R)-1-amino-3-hydroxy-1-oxobutan-2-yl)-1-oxo-2,5-diazaspiro[3.4]octane-5-carboxylate dihydrate]",mostly crystalline Form I with residual amorphous content and very small amount of crystalline Form II
–,–,–,–,–,below 0.66,"C[C@@H](O)[C@@H](C(N)=O)N1C[C@@]2(CCCN2C(=O)OC(C)(C)C)C1=O [crystalline Form I of Compound A, tert-butyl (S)-2-((2S,3R)-1-amino-3-hydroxy-1-oxobutan-2-yl)-1-oxo-2,5-diazaspiro[3.4]octane-5-carboxylate]",–
